Tests used:
[1] = test system: PI3K-α (PIK3CA) in MDA-MB-453 cells; assay: PI3K-alpha kinase (PIK3CA) activity in vitro cell based assay, MDA-MB-453 cells, AlphaLisa SureFire; conditions: Homo sapiens, MDA-MB-453, 3 h, 0% FBS, 3 hours treatment, relative IC50
Experimental: PI3K-Alpha Kinase (PIK3CA) Activity In Vitro Cell Based Assay and Determining IC50 Values for Inhibitors
The MDA-MB-453 (ATCC-HTB-131) cell line was obtained from the American Type Culture Collection (Manassas, VA). Cells were maintained in Dulbecco's Modified Eagle Media (DMEM, Gibco 11965-092) supplemented with 10% Fetal Bovine Serum, heat inactivated (FBS HI, Gibco 10082-147), 1× non-essential amino acids (NEAA, Gibco 11140-050), and 1 mM sodium pyruvate (Gibco 11360-070). Cultures were maintained in a humidified incubator at 37° C. under 5% CO2/95% air.
For compound testing in 0% FBS, MDA-MB-453 cells were seeded at a density of 1.5×10^4 cells per well in white 384-well plates in 20 μl of Minimum Essential Media (MEM) assay media with 1×NEAA, 1 mM sodium pyruvate, and 1 μg/mL human insulin (Sigma I9278). Compounds dissolved in 10 mM stock solutions in DMSO were serially diluted 1:3 in DMSO to generate a 10-point dilution series and plated using an acoustic liquid handler system (Echo 550 Series Liquid Handler, Labcyte). A 5× intermediate compound dilution plate in MEM with 1×NEAA and 1 mM sodium pyruvate (150 μM starting compound concentration in 1.5% DMSO) was then prepared. Five μl of the intermediate serially diluted compounds were added to the cell plate to final concentrations ranging from […] in 0.3% DMSO. 0.3% DMSO alone was used to establish the maximum (MAX) signal and GDC-0032 at a final concentration of 1 μM was used as a reference compound for the minimum (MIN) signal. After 3 hours treatment, the medium was removed, and the cells lysed in 10 μL of 1× SureFire Lysis buffer with shaking for 10 minutes at room temperature. The Acceptor Mix (Reaction Buffer 1+Reaction Buffer 2+Activation Buffer+SureFire Ultra Acceptor Beads) was prepared by diluting Activation buffer 25-fold in combined Reaction Buffer 1 and Reaction Buffer 2. The Acceptor beads were diluted 50-fold in the combined Reaction Buffers. Five μL of Acceptor Mix was added to each well, the plate was sealed and covered with foil and incubated for 1 hour at room temperature. The Donor Mix (dilution buffer+SureFire Ultra Donor Beads) was prepared by diluting Donor Beads 50-fold in dilution buffer. Five μL of the Donor Mix was added to each well and the plate sealed and covered with foil and incubated for 1 hour at room temperature in the dark. The plates were read on a Neo2 plate reader instrument from Biotek using standard AlphaLisa settings. Compounds were tested in duplicate and the average % inhibition at each compound concentration was used to generate a single dose response curve. The data were processed using the Genedata-Screener tool. Relative IC50 values were determined using luminescence units by calculating percent inhibition with respect to the in-plate “MIN” (GDC-0032 reference control) and “MAX” (DMSO) controls. The data was analyzed using a 4-parameter nonlinear logistic equation (four-parameter logistic concentration-response curve): Y=bottom+[(top−bottom)/1+(X/IC50)slope] where Y=% inhibition, X=concentration of inhibitor, bottom=minimum value of y attained by curve-fit, top=maximum value of y attained by curve-fit and slope=steepness of curve at the IC50. % Inhibition=[(signal at X−median Min)/(median Max−median Min)]×100 IC50: concentration of compound that reduces a given response (ligand binding, enzyme response) by 50%. Relative IC50: concentration giving half the compound's maximum response.
For IC50 values shown in Table B, “A” means IC50<50 nM; “B” means IC50 ranging between 50 nM and 100 nM; “C” means IC50 ranging between 100 nM and 500 nM; “D” means IC50>500 nM.

[2] = biological target: T1, human full length PIK3KA H1047R mutant (p110α/p85α complex) (Homo sapiens, UniProt P42336, H1047R); assay: PI3K-alpha kinase (PIK3CA) biochemical activity, H1047R mutant, ADP-Glo; conditions: PI3K-α (PIK3CA) biochemical, H1047R mutant, Soy PI lipid substrate
T1 construct: Recombinant, catalytically active human full length PIK3KA Wild-type and H1047R mutant were purchased as 1:1 complex; 6xHis (N); purchased EMD Millipore Sigma 14-792M
T1 sequence (P42336 whole entry H1047R): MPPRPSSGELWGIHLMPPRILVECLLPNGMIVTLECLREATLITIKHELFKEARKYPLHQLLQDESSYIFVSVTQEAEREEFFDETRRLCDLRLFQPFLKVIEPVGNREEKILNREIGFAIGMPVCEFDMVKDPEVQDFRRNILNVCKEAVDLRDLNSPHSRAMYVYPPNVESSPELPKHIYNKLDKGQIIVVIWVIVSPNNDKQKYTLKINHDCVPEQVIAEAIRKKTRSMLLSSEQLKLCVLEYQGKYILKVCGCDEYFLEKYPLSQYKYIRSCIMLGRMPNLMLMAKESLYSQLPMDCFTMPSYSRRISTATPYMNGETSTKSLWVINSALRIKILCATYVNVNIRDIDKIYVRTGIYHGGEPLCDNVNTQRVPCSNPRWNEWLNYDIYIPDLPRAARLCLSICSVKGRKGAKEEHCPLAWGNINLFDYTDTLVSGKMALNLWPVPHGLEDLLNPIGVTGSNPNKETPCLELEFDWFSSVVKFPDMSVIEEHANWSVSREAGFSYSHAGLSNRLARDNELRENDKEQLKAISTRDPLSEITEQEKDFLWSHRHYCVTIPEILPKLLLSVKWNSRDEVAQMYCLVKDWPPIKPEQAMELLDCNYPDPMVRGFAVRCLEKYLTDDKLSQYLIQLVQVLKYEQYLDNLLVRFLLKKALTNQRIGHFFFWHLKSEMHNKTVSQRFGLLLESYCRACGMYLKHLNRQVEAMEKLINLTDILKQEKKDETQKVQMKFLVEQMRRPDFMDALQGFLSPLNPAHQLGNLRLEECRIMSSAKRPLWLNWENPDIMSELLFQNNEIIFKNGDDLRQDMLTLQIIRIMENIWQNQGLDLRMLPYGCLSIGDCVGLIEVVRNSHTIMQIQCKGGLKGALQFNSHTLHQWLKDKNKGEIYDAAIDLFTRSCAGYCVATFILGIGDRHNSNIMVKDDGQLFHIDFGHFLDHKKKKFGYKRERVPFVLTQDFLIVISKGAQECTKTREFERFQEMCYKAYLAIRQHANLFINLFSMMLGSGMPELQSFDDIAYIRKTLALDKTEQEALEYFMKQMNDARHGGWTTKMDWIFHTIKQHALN
T1 sequence (P27986 whole entry partner): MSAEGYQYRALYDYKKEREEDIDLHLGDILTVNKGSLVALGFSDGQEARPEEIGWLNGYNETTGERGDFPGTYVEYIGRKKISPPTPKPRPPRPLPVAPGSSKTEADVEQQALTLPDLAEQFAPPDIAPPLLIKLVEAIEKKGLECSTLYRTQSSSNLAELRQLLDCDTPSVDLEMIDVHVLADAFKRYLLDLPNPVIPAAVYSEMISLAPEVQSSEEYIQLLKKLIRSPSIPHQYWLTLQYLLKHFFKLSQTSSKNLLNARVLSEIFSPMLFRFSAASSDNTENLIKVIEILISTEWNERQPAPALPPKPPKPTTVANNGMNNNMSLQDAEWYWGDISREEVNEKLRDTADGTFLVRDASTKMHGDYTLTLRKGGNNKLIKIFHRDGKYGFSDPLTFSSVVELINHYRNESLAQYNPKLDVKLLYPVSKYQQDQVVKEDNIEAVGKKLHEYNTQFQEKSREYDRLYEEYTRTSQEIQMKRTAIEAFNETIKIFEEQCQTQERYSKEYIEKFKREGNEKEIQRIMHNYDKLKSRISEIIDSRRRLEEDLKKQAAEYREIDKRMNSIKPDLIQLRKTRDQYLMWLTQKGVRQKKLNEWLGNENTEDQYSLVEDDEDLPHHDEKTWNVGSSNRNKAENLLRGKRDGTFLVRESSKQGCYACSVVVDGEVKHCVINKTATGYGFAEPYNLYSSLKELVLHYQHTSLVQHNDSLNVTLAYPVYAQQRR
In short: (§1)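 ADP formation, read by ADP-Glo, is run to about 10% ATP turnover at 27 °C with 20 μM ATP and 50 μM PIP2diC8 or soy PI. WT or H1047R p110α/p85α (1–5 nM) is pre-incubated 1 h with compound in HEPES pH 7.4/MgCl2/Triton buffer, 1% DMSO. 10-point 1:3 series, logistic IC50 versus no-enzyme and DMSO controls.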

[3] = biological target: T2, human full length PIK3KA Wild-type (p110α/p85α complex) (Homo sapiens, UniProt P42336); assay: PI3K-alpha kinase (PIK3CA) biochemical activity, wild-type, ADP-Glo; conditions: PI3K-α (PIK3CA) biochemical, Soy PI lipid substrate
T2 construct: Recombinant, catalytically active human full length PIK3KA Wild-type and H1047R mutant were purchased as 1:1 complex; 6xHis (N); purchased EMD Millipore Sigma 14-602M
In short: as §1

SMILES	IC50 [1]	IC50 [2]	IC50 [3]
Cc1cc([C@@H](C)Nc2ccc(Br)nc2C(=O)O)c2oc(-c3ccccc3)c(C)c(=O)c2c1 [Example 35, 6-Bromo-3-[[(1R)-1-(3,6-dimethyl-4-oxo-2-phenyl-chromen-8-yl)ethyl]amino]-pyridine-2-carboxylic acid]	< 50 nM	< 500 nM	1000 to 5000 nM
Cc1cc([C@@H](C)Nc2cccnc2C(=O)O)c2oc(-c3ccccc3)c(C)c(=O)c2c1 [Example 36, 3-[[(1R)-1-(3,6-Dimethyl-4-oxo-2-phenyl-chromen-8-yl)ethyl]amino]-pyridine-2-carboxylic acid]	50 to 100 nM	500 to 1000 nM	5000 to 10000 nM
Cc1cc([C@@H](C)Nc2ccc(C(F)(F)F)cc2C(=O)O)c2oc(-c3ccccc3)c(C)c(=O)c2c1 [Example 37, 2-[[(1R)-1-(3,6-Dimethyl-4-oxo-2-phenyl-chromen-8-yl)ethyl]amino]-5-(trifluoromethyl)benzoic acid]	100 to 500 nM	500 to 1000 nM	1000 to 5000 nM
Cc1cc([C@@H](C)Nc2ccc(F)c(F)c2C(=O)O)c2oc(-c3ccccc3)c(C)c(=O)c2c1 [Example 38, 6-[[(1R)-1-(3,6-Dimethyl-4-oxo-2-phenyl-chromen-8-yl)ethyl]amino]-2,3-difluoro-benzoic acid]	< 50 nM	< 500 nM	< 500 nM
Cc1cc([C@@H](C)Nc2ccc(C)nc2C(=O)O)c2oc(-c3ccccc3)c(C)c(=O)c2c1 [Example 39, 3-[[(1R)-1-(3,6-Dimethyl-4-oxo-2-phenyl-chromen-8-yl)ethyl]amino]-6-methyl-pyridine-2-carboxylic acid]	< 50 nM	< 500 nM	1000 to 5000 nM
Cc1cc([C@@H](C)Nc2ccc(C3CC3)nc2C(=O)O)c2oc(-c3ccccc3)c(C)c(=O)c2c1 [Example 40, 6-Cyclopropyl-3-[[(1R)-1-(3,6-dimethyl-4-oxo-2-phenyl-chromen-8-yl)ethyl]amino]-pyridine-2-carboxylic acid]	50 to 100 nM	< 500 nM	5000 to 10000 nM
Cc1cc([C@@H](C)Nc2ccc(Cl)cc2C(=O)O)c2oc(-c3ccccc3)c(C)c(=O)c2c1 [Example 41, 5-Chloro-2-[[(1R)-1-(3,6-dimethyl-4-oxo-2-phenyl-chromen-8-yl)ethyl]amino]benzoic acid]	< 50 nM	< 500 nM	1000 to 5000 nM
Cc1cc([C@@H](C)Nc2ccc(Cl)c(F)c2C(=O)O)c2oc(-c3ccccc3)c(C)c(=O)c2c1 [Example 42, 3-Chloro-6-[[(1R)-1-(3,6-dimethyl-4-oxo-2-phenyl-chromen-8-yl)ethyl]amino]-2-fluoro-benzoic acid]	< 50 nM	< 500 nM	500 to 1000 nM
Cc1cc([C@@H](C)Nc2ccc(C)c(F)c2C(=O)O)c2oc(-c3ccccc3)c(C)c(=O)c2c1 [Example 43, 6-[[(1R)-1-(3,6-Dimethyl-4-oxo-2-phenyl-chromen-8-yl)ethyl]amino]-2-fluoro-3-methyl-benzoic acid]	50 to 100 nM	< 500 nM	1000 to 5000 nM
Cc1cc([C@@H](C)Nc2ccccc2C(=O)O)c2oc(-c3ccccc3F)c(C)c(=O)c2c1 [Example 44, 2-[[(1R)-1-[2-(2-Fluorophenyl)-3,6-dimethyl-4-oxo-chromen-8-yl]ethyl]amino]benzoic acid]	< 50 nM	< 500 nM	1000 to 5000 nM
Cc1cc([C@@H](C)Nc2ccc(F)cc2C(=O)O)c2oc(-c3ccccc3)c(C)c(=O)c2c1 [Example 58, 2-[[(1R)-1-(3,6-Dimethyl-4-oxo-2-phenyl-chromen-8-yl)ethyl]amino]-5-fluoro-benzoic acid]	< 50 nM	< 500 nM	< 500 nM
COc1cccc(-c2cc(=O)c3cc(C)cc([C@@H](C)Nc4ccccc4C(=O)O)c3o2)c1 [Example 60, 2-[[(1R)-1-[2-(3-Methoxyphenyl)-6-methyl-4-oxo-chromen-8-yl]ethyl]amino]benzoic acid 2,2,2-trifluoroacetic acid]	< 50 nM	< 500 nM	500 to 1000 nM
Cc1cc([C@@H](C)Nc2ccccc2C(=O)O)c2oc(-c3ccc(F)c(F)c3)cc(=O)c2c1 [Example 63, 2-[[(1R)-1-[2-(3,4-DifIuorophenyl)-6-methyl-4-oxo-chromen-8-yl]ethyl]amino]benzoic acid 2,2,2-trifluoroacetic acid]	< 50 nM	< 500 nM	1000 to 5000 nM

Other lines, results leading:

IC50 [1]	IC50 [2]	IC50 [3]	SMILES
< 50 nM	< 500 nM	1000 to 5000 nM	COc1ccc(-c2cc(=O)c3cc(C)cc([C@@H](C)Nc4ccccc4C(=O)O)c3o2)cc1 [Example 66, 2-[[(1R)-1-[2-(4-Methoxyphenyl)-6-methyl-4-oxo-chromen-8-yl]ethyl]amino]benzoic acid 2,2,2-trifluoroacetic acid]
50 to 100 nM	< 500 nM	> 10000 nM	COc1ccccc1-c1cc(=O)c2cc(C)cc([C@@H](C)Nc3ccccc3C(=O)O)c2o1 [Example 67, 2-[[(1R)-1-[2-(2-Methoxyphenyl)-6-methyl-4-oxo-chromen-8-yl]ethyl]amino]benzoic acid 2,2,2-trifluoroacetic acid]
< 50 nM	< 500 nM	1000 to 5000 nM	Cc1cc([C@@H](C)Nc2ccccc2C(=O)O)c2oc(-c3cc(F)cc(F)c3)cc(=O)c2c1 [Example 68, 2-[[(1R)-1-[2-(3,5-Difluorophenyl)-6-methyl-4-oxo-chromen-8-yl]ethyl]amino]benzoic acid 2,2,2-trifluoroacetic acid]
< 50 nM	< 500 nM	500 to 1000 nM	Cc1cc([C@@H](C)Nc2cccc(F)c2C(=O)O)c2oc(-c3ccccc3)c(C)c(=O)c2c1 [Example 69, 2-[[(1R)-1-(3,6-Dimethyl-4-oxo-2-phenyl-chromen-8-yl)ethyl]amino]-6-fluoro-benzoic acid]
< 50 nM	< 500 nM	1000 to 5000 nM	Cc1cc([C@@H](C)Nc2ccccc2C(=O)O)c2oc(-c3ccccc3)c(C(F)(F)F)c(=O)c2c1 [Example 70, 2-[[(1R)-1-[6-Methyl-4-oxo-2-phenyl-3-(trifluoromethyl)-chromen-8-yl]ethyl]amino]benzoic acid 2,2,2-trifluoroacetic acid]
< 50 nM	< 500 nM	> 10000 nM	Cc1cc([C@@H](C)Nc2ccccc2C(=O)O)c2oc(-c3cccc(C(F)F)c3)c(C)c(=O)c2c1 [Example 73, 2-[[(1R)-1-[2-[3-(Difluoromethyl)phenyl]-3,6-dimethyl-4-oxo-chromen-8-yl]ethyl]amino]benzoic acid 2,2,2-trifluoroacetic acid]
